Results on 26 compounds are retold here after paper PMC10974284, “Discovery of Novel 4-Hydroxyquinazoline Derivatives: In Silico, In Vivo and In Vitro Studies Using Primary PARPi-Resistant Cell Lines” (Molecules, 2024).

The test system of one data set is HCT-15 cell lines. Description: MTT cytotoxicity assay, HCT-15. The data set is classed as cell-based, human. The note with it: Homo sapiens, read-out: IC50 HCT-15. The method, then: (§1) After treatment with target compounds at the different concentrations, MTT was added and the cells were incubated for another 4 h. The IC50 values of the selected compounds were evaluated by the same method. The cells were treated with compounds at different concentrations. The OD values were detected using a microplate reader at 570 nm.

For another data set, the system named is HCC1937 cell lines. Description: MTT cytotoxicity assay, HCC1937. The data set is classed as cell-based, human. The settings on record: Homo sapiens, read-out: IC50 HCC1937. The method, then: as §1
On the technique in general: Tetrazolium dyes change colour on reduction, which living cells bring about.

Where [1] appears, read: HCT-15, 72 h (3-Days) drug exposure, MTT.
[2] abbreviates: HCC1937, 72 h (3-Days) drug exposure, MTT.

SMILES strings stand for the structures. Like-named read-outs stand apart in the source and are kept apart here. Some results are limits rather than exact numbers.

By IC50 is commonly meant the concentration that inhibits the measured activity by half. Usually melting point stands for the temperature, or range, at which the solid turns liquid. The compound `Cc1ccc(Cl)cc1NC(=O)N1C2CC1CN(Cc1nc3cc(F)ccc3c(=O)[nH]1)C2` [C1, N-(5-chloro-2-methylphenyl)-3-((7-fluoro-4-oxo-3,4-dihydroquinazolin-2-yl)methyl)-3,6-diazabicyclo[3.1.1]heptane-6-carboxamide] yielded a melting point of 193.2 to 195.1 °C. In addition, in the data set with HCT-15 cell lines (HCT-15, 72 h), the IC50 was determined as 24.1 ± 2.25 µM. The IC50 in the data set with HCC1937 cell lines (HCC1937, 72 h) amounted to 9.22 ± 1.19 µM.
On to `O=C(Nc1cccc(Br)c1)N1CCN(Cc2nc3ccccc3c(=O)[nH]2)CC1` [A8, N-(3-bromophenyl)-4-((4-oxo-3,4-dihydroquinazolin-2-yl)methyl)piperazine-1-carboxamide], for which the melting point lay in the range of 194.2 to 196.3 °C. In addition, in the data set with HCT-15 cell lines (setting [1]), the IC50 amounted to 27.7 ± 2.56 µM. In addition, the 50% inhibitory concentration (IC50) in the data set on HCC1937 cell lines (setting [2]) was 47.4 ± 2.96 µM.
Taken in the same sequence, the figures for `COc1cccc(NC(=O)N2CCN(Cc3nc4ccccc4c(=O)[nH]3)CC2)c1` [A17, N-(3-methoxyphenyl)-4-((4-oxo-3,4-dihydroquinazolin-2-yl)methyl)piperazine-1-carboxamide] were 186.3 to 188.5 °C, above 50 µM and above 50 µM.
`Cc1ccc(Cl)cc1NC(=O)N1CCCN(Cc2nc3ccccc3c(=O)[nH]2)CC1` [B4, N-(5-chloro-2-methylphenyl)-4-((4-oxo-3,4-dihydroquinazolin-2-yl)methyl)-1,4-diazepane-1-carboxamide] gave a melting point of 186.6 to 187.9 °C. Further, the IC50 in the data set on HCT-15 cell lines (setting [1]) is 5.65 ± 1.29 µM. In addition, the IC50 in the data set on HCC1937 cell lines (setting [2]) is 5.77 ± 0.99 µM.
The corresponding values for `O=C(Nc1cc(F)ccc1F)N1CCN(Cc2nc3ccccc3c(=O)[nH]2)CC1` [A20, N-(2,5-difluorophenyl)-4-((4-oxo-3,4-dihydroquinazolin-2-yl)methyl)piperazine-1-carboxamide] are 202.1 to 204.2 °C, 33.1 ± 2.16 µM and 41.7 ± 1.89 µM.
In turn, `Cc1ccc2c(=O)[nH]c(CN3CC4CC(C3)N4C(=O)Nc3cc(Cl)ccc3C)nc2c1` [C3, N-(5-chloro-2-methylphenyl)-3-((7-methyl-4-oxo-3,4-dihydroquinazolin-2-yl)methyl)-3,6-diazabicyclo[3.1.1]heptane-6-carboxamide] returned a melting point of 197.7 to 199.3 °C. In addition, the half-inhibitory concentration (IC50) in the data set on HCT-15 cell lines (HCT-15, 72 h) turned out to be 28.4 ± 2.87 µM. The half-maximal inhibitory concentration (IC50) in the data set on HCC1937 cell lines (HCC1937, 72 h) is 30.1 ± 3.12 µM.
Regarding `Cc1ccc(Cl)cc1NC(=O)N1CCCN(Cc2nc3ccccc3c(=O)[nH]2)C1` [B7, N-(5-chloro-2-methylphenyl)-3-((4-oxo-3,4-dihydroquinazolin-2-yl)methyl)tetrahydropyrimidine-1(2H)-carboxamide], the melting point fell in the range of 197.3 to 198.7 °C. Moreover, the IC50 with HCT-15 cell lines (setting [1]) is 13.7 ± 1.21 µM. Besides, the IC50 in the data set with HCC1937 cell lines (setting [2]) worked out at 57.9 ± 3.33 µM.
Taken in the same sequence, the figures for `O=C(Nc1ccccc1F)N1CCN(Cc2nc3ccccc3c(=O)[nH]2)CC1` [A1, N-(2-fluorophenyl)-4-((4-oxo-3,4-dihydroquinazolin-2-yl)methyl)piperazine-1-carboxamide] were 192.5 to 194.2 °C, 18.4 ± 0.91 µM and 16.6 ± 1.12 µM.
In the case of `O=C(Nc1ccc(C(F)(F)F)cc1)N1CCN(Cc2nc3ccccc3c(=O)[nH]2)CC1` [A15, 4-((4-oxo-3,4-dihydroquinazolin-2-yl)methyl)-N-(4-(trifluoromethyl)phenyl)piperazine-1-carboxamide], the melting point is 198.8 to 200.6 °C. Moreover, in the data set on HCT-15 cell lines (setting [1]), the 50% inhibitory concentration (IC50) was determined as 15.6 ± 0.56 µM. In addition, in the data set on HCC1937 cell lines (setting [2]), the IC50 was above 50 µM.
Taken in the same sequence, the figures for `Cc1ccc(NC(=O)N2CCN(Cc3nc4ccccc4c(=O)[nH]3)CC2)c(F)c1` [A22, N-(2-fluoro-4-methylphenyl)-4-((4-oxo-3,4-dihydroquinazolin-2-yl)methyl)piperazine-1-carboxamide] were 198.4 to 200.7 °C, 21.7 ± 1.16 µM and above 50 µM.
Taken in the same sequence, the figures for `O=C(Nc1c(F)cccc1Cl)N1CCN(Cc2nc3ccccc3c(=O)[nH]2)CC1` [A25, N-(2-chloro-6-fluorophenyl)-4-((4-oxo-3,4-dihydroquinazolin-2-yl)methyl)piperazine-1-carboxamide] were 198.4 to 199.8 °C, 41.2 ± 1.44 µM and above 50 µM.
Taken in the same sequence, the figures for `Cc1ccc(F)cc1NC(=O)N1CCN(Cc2nc3ccccc3c(=O)[nH]2)CC1` [A30, N-(5-fluoro-2-methylphenyl)-4-((4-oxo-3,4-dihydroquinazolin-2-yl)methyl)piperazine-1-carboxamide] were 201.1 to 202.8 °C, 18.3 ± 0.44 µM and 39.5 ± 1.84 µM.
With `Cc1ccc(Cl)cc1NC(=O)N1C2CC1CN(Cc1nc3cc(Cl)ccc3c(=O)[nH]1)C2` [C2, N-(5-chloro-2-methylphenyl)-3-((7-chloro-4-oxo-3,4-dihydroquinazolin-2-yl)methyl)-3,6-diazabicyclo[3.1.1]heptane-6-carboxamide], the melting point was 192.3 to 194.1 °C. The half-maximal inhibitory concentration (IC50) with HCT-15 cell lines (HCT-15, 72 h) worked out at 23 ± 1.93 µM. Also, the IC50 with HCC1937 cell lines (HCC1937, 72 h) was determined as 32.4 ± 2.66 µM.
As to `O=C(Nc1ccc(F)cc1)N1CCN(Cc2nc3ccccc3c(=O)[nH]2)CC1` [A3, N-(4-fluorophenyl)-4-((4-oxo-3,4-dihydroquinazolin-2-yl)methyl)piperazine-1-carboxamide], the melting point lay in the range of 196.5 to 197.8 °C. In addition, the 50% inhibitory concentration (IC50) in the data set on HCT-15 cell lines (setting [1]) is above 50 µM. Further, the IC50 in the data set with HCC1937 cell lines (setting [2]) was above 50 µM.
`Cc1ccc(Cl)cc1NC(=O)N1CCN(Cc2nc3ccccc3c(=O)[nH]2)CC1` [A32, N-(5-chloro-2-methylphenyl)-4-((4-oxo-3,4-dihydroquinazolin-2-yl)methyl)piperazine-1-carboxamide]: the melting point lay in the range of 203.1 to 204.7 °C. The IC50 with HCT-15 cell lines (setting [1]) turned out to be 10.9 ± 0.71 µM. The IC50 with HCC1937 cell lines (setting [2]) is 11.3 ± 0.73 µM.
Taken in the same sequence, the figures for `Cc1ccccc1NC(=O)N1CCN(Cc2nc3ccccc3c(=O)[nH]2)CC1` [A10, 4-((4-oxo-3,4-dihydroquinazolin-2-yl)methyl)-N-(o-tolyl)piperazine-1-carboxamide] were 199.9 to 201.6 °C, 15.9 ± 0.85 µM and 14.7 ± 1.03 µM.
Taken in the same sequence, the figures for `Cc1cccc(C)c1NC(=O)N1CCN(Cc2nc3ccccc3c(=O)[nH]2)CC1` [A33, N-(2,6-dimethylphenyl)-4-((4-oxo-3,4-dihydroquinazolin-2-yl)methyl)piperazine-1-carboxamide] were 200.3 to 201.9 °C, 35 ± 2.28 µM and 39.6 ± 1.35 µM.
Taken in the same sequence, the figures for `O=C(Nc1cccc(C(F)(F)F)c1)N1CCN(Cc2nc3ccccc3c(=O)[nH]2)CC1` [A14, 4-((4-oxo-3,4-dihydroquinazolin-2-yl)methyl)-N-(3-(trifluoromethyl)phenyl)piperazine-1-carboxamide] were 197.8 to 200.3 °C, 20 ± 1.15 µM and 17.7 ± 0.77 µM.
The compound `Cc1ccc(NC(=O)N2CCN(Cc3nc4ccccc4c(=O)[nH]3)CC2)cc1` [A12, 4-((4-oxo-3,4-dihydroquinazolin-2-yl)methyl)-N-(p-tolyl)piperazine-1-carboxamide] displayed a melting point of 197.7 to 199.5 °C. Besides, the IC50 in the data set on HCT-15 cell lines (setting [1]) was above 50 µM. The IC50 in the data set on HCC1937 cell lines (setting [2]) was above 50 µM.
On to `COc1ccccc1NC(=O)N1CCN(Cc2nc3ccccc3c(=O)[nH]2)CC1` [A16, N-(2-methoxyphenyl)-4-((4-oxo-3,4-dihydroquinazolin-2-yl)methyl)piperazine-1-carboxamide], for which the melting point is 188.5 to 190.7 °C. Moreover, the half-inhibitory concentration (IC50) in the data set on HCT-15 cell lines (setting [1]) stood at 30.7 ± 2.13 µM. The half-maximal inhibitory concentration (IC50) in the data set with HCC1937 cell lines (setting [2]) was above 50 µM.
The corresponding values for `Cc1ccc(NC(=O)N2CCN(Cc3nc4ccccc4c(=O)[nH]3)CC2)cc1C` [A37, N-(3,4-dimethylphenyl)-4-((4-oxo-3,4-dihydroquinazolin-2-yl)methyl)piperazine-1-carboxamide] are 194.4 to 196.1 °C, 22.5 ± 1.49 µM and 46.4 ± 2.96 µM.
Taken in the same sequence, the figures for `O=C(Nc1cccc(F)c1)N1CCN(Cc2nc3ccccc3c(=O)[nH]2)CC1` [A2, N-(3-fluorophenyl)-4-((4-oxo-3,4-dihydroquinazolin-2-yl)methyl)piperazine-1-carboxamide] were 189.5 to 192.1 °C, 34.9 ± 2.23 µM and above 50 µM.
The corresponding values for `Cc1c(Br)cccc1NC(=O)N1CCN(Cc2nc3ccccc3c(=O)[nH]2)CC1` [A31, N-(3-bromo-2-methylphenyl)-4-((4-oxo-3,4-dihydroquinazolin-2-yl)methyl)piperazine-1-carboxamide] are 200.6 to 202.2 °C, above 50 µM and above 50 µM.
`O=C(Nc1ccc(Br)cc1)N1CCN(Cc2nc3ccccc3c(=O)[nH]2)CC1` [A9, N-(4-bromophenyl)-4-((4-oxo-3,4-dihydroquinazolin-2-yl)methyl)piperazine-1-carboxamide] gave a melting point of 187.8 to 188.9 °C. In addition, the IC50 in the data set with HCT-15 cell lines (setting [1]) was above 50 µM. Besides, the IC50 with HCC1937 cell lines (setting [2]) was above 50 µM.
`Cc1ccc(Cl)cc1NC(=O)N1CCN(Cc2nc3ccccc3c(=O)[nH]2)CC1C` (stereo not drawn) [B2, N-(5-chloro-2-methylphenyl)-2-methyl-4-((4-oxo-3,4-dihydroquinazolin-2-yl)methyl)piperazine-1-carboxamide]: the melting point lay in the range of 189.5 to 190.8 °C. In the data set with HCT-15 cell lines (setting [1]), the IC50 turned out to be 6.37 ± 2.83 µM. The IC50 in the data set on HCC1937 cell lines (setting [2]) is 5.89 ± 0.5 µM.
The compound `COc1ccc(NC(=O)N2CCN(Cc3nc4ccccc4c(=O)[nH]3)CC2)cc1` [A18, N-(4-methoxyphenyl)-4-((4-oxo-3,4-dihydroquinazolin-2-yl)methyl)piperazine-1-carboxamide] registered a melting point of 184.9 to 186.9 °C. In addition, the IC50 in the data set with HCT-15 cell lines (setting [1]) is above 50 µM. For the same compound, the IC50 in the data set with HCC1937 cell lines (setting [2]) is above 50 µM.
